The source of these data is PMC3997336 (PLoS ONE, 2014).

For this test, the target named is T1, MKK7 (Homo sapiens, UniProt O14733).
T1 construct: gene MAP2K7
As to the kind of experiment: biochemical.

Molecules are shown by their SMILES.

T1 sequence (O14733 2-419): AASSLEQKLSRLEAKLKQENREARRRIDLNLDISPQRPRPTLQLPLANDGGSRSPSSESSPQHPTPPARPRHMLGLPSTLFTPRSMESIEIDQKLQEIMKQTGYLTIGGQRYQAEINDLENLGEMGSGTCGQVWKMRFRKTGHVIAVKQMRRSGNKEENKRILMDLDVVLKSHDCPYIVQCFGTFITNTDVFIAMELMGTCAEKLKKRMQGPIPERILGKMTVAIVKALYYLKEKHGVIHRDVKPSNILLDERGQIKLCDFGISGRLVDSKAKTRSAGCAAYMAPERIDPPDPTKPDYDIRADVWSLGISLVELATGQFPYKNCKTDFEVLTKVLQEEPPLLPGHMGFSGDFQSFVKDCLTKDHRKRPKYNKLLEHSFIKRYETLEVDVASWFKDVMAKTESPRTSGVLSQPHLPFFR

Consider `COc1ccc2c(Cc3ccc(O[Si](C)(C)C(C)(C)C)cc3)c3[n+](cc2c1OC)CCc1cc2c(cc1-3)OCO2` [HWY336], for which half-maximal inhibition (IC50) was put at 10 µM.

Usually IC50 stands for the concentration needed to halve the response being measured. A lower IC50 goes with higher potency.
